Results reported in ChEMBL document CHEMBL3621056, “Discovery of mitochondria-targeting berberine derivatives as the inhibitors of proliferation, invasion and migration against rat C6 and human U87 glioma cells” (Medchemcomm, 2015).
Activity calls are given as the source filed them. No cut-off for these calls is given here.

Assays:
[1] = (§1) Antimigratory activity in human U87 cells at 0.5 uM after 24 hrs by Transwell assay relative to control; assay type: functional, U-87MG ATCC
C6 [2] = assay: Induction of intracellular reactive oxygen species formation in rat C6 cells at 2 uM after 24 hrs by DHE dye-based inverted fluorescent microscopic analysis; assay type: functional, cell-based
[3] = Drug uptake in mitochondria of human U87 cells at 1 uM after 24 hrs by Mitotracker Green FM staining-based laser confocal microscopic analysis; assay type: ADME; conditions: u-87mg atcc
U-87MG ATCC [4] = assay: Induction of intracellular reactive oxygen species formation in human U87 cells at 2 uM after 24 hrs by DHE dye-based inverted fluorescent microscopic analysis; assay type: functional, cell-based
[5] = (§2) Antiinvasive activity in human U87 cells at 0.5 uM after 24 hrs by Transwell assay relative to control; assay type: functional, U-87MG ATCC
C6 [6] = assay: Antimigratory activity in rat C6 cells at 0.5 uM after 24 hrs by Transwell assay relative to control; assay type: functional
[7] = Cytotoxicity against human U87 cells assessed as cell survival rate at 10 uM after 24 hrs by MTT assay relative to control; assay type: functional, U-87MG ATCC; conditions: U-87 MG, read-out: Survival
[8] = n-octanol/water partition coefficient, log P of the compound by HPLC analysis; assay type: physicochemical
U-87MG ATCC [9] = assay: (§3) Cytotoxicity against human U87 cells assessed as inhibition of cell proliferation after 24 hrs by MTT assay; assay type: functional, cell-based
[10] = as §3; assay type: functional, cell-based, U-87MG ATCC; conditions: U-87 MG
[11] = Drug uptake in mitochondria of rat C6 cells at 1 uM after 24 hrs by Mitotracker Green FM staining-based laser confocal microscopic analysis; assay type: ADME; conditions: c6, 24 h
C6 [12] = assay: Antiinvasive activity in rat C6 cells at 0.5 uM after 24 hrs by Transwell assay relative to control; assay type: functional
C6 [13] = assay: Cytotoxicity against rat C6 cells assessed as inhibition of cell proliferation after 24 hrs by MTT assay; assay type: functional, cell-based; conditions: for IC50: C6, 24 h
C6 [14] = assay: Cytotoxicity against rat C6 cells assessed as cell survival rate at 10 uM after 24 hrs by MTT assay relative to control; assay type: functional; conditions: C6, 24 h, read-out: Survival
[15] = (§4) Antimigratory activity in human U87 cells at 2.5 uM after 24 hrs by Transwell assay relative to control; assay type: functional, U-87MG ATCC
[16] = (§5) Antiinvasive activity in human U87 cells at 2.5 uM after 24 hrs by Transwell assay relative to control; assay type: functional, U-87MG ATCC
[17] = Cytotoxicity against human U87 cells assessed as growth inhibition after 72 hrs by SRB assay; assay type: functional, cell-based, U-87MG ATCC; conditions: U-87 MG
C6 [18] = assay: Antimigratory activity in rat C6 cells at 1 uM after 24 hrs by Transwell assay; assay type: functional, cell-based
C6 [19] = assay: Antiinvasive activity in rat C6 cells at 1 uM after 24 hrs by Transwell assay; assay type: functional, cell-based
U-87MG ATCC [20] = assay: as §4; assay type: functional
C6 [21] = assay: Cytotoxicity against rat C6 cells assessed as cell survival rate at 20 uM after 24 hrs by MTT assay relative to control; assay type: functional; conditions: C6, 24 h, read-out: Survival
[22] = Cytotoxicity against human U87 cells assessed as cell survival rate at 20 uM after 24 hrs by MTT assay relative to control; assay type: functional, U-87MG ATCC; conditions: U-87 MG, read-out: Survival
U-87MG ATCC [23] = assay: as §5; assay type: functional
[24] = Cytotoxicity against human U87 cells assessed as cell survival rate up to 20 uM after 24 hrs by MTT assay relative to control; assay type: functional, U-87MG ATCC
U-87MG ATCC [25] = assay: as §1; assay type: functional
U-87MG ATCC [26] = assay: as §2; assay type: functional
C6 [27] = assay: Antiinvasive activity in rat C6 cells at 5 uM after 24 hrs by Transwell assay; assay type: functional, cell-based
U-87MG ATCC [28] = assay: Antiinvasive activity in human U87 cells at 5 uM after 24 hrs by Transwell assay; assay type: functional, cell-based
U-87MG ATCC [29] = assay: Antimigratory activity in human U87 cells at 5 uM after 24 hrs by Transwell assay; assay type: functional, cell-based
C6 [30] = assay: Antimigratory activity in rat C6 cells at 5 uM after 24 hrs by Transwell assay; assay type: functional, cell-based
[31] = Antiinvasive activity in human U87 cells at 2 uM after 24 hrs by Transwell assay relative to control; assay type: functional, U-87MG ATCC
[32] = Antimigratory activity in human U87 cells at 2 uM after 24 hrs by Transwell assay relative to control; assay type: functional, U-87MG ATCC

| Compound | Activity (C6 [2]) | Drug uptake [3] | Activity (U-87MG ATCC [4]) | Activity (C6 [6]) | viability at 10 µM [7] [%] | logP [8] | inhibition (U-87MG ATCC [9]) | IC50 [10] [µM] | Drug uptake [11] | Activity (C6 [12]) | inhibition (C6 [13]) | IC50 (C6 [13]) [µM] | viability at 10 µM (C6 [14]) [%] | Activity [15] [%] | Activity [16] [%] | also measured |
| --- | --- | --- | --- | --- | --- | --- | --- | --- | --- | --- | --- | --- | --- | --- | --- | --- |
| CCCCCCCCCCCCc1c2[n+](cc3c(OC)c(OC)ccc13)CCc1cc3c(cc1-2)OCO3.[I-] | Active | Active | Active | >60% | < 20 | 3.66 | Dose-dependent effect | 3.09 | Active | >60% | Dose-dependent effect | 1.65 | < 20 | – | – | Activity [1]: >60%; Activity [5]: >60% |
| COc1ccc2cc3[n+](cc2c1OCc1ccccc1)CCc1cc2c(cc1-3)OCO2.[Br-] | Active | – | Active | >30% | – | -0.86 | Dose-dependent effect | > 20 | – | >30% | Dose-dependent effect | 11.5 | – | >30 | >30 | – |
| CCCCCCCCCCCCCCCCCCc1c2[n+](cc3c(OC)c(OC)ccc13)CCc1cc3c(cc1-2)OCO3.[I-] | inactive | – | inactive | >30% | < 20 | 3.22 | Dose-dependent effect | 5.75 | – | >30% | Dose-dependent effect | 2.37 | < 20 | >30 | >30 | – |
| Cn1nnc2c(C(N)=O)ncn2c1=O [TEMOZOLOMIDE] | – | – | – | – | – | – | – | – | – | – | – | – | – | – | – | IC50 [17]: 19.4 µM |
| COc1ccc2c(Cc3ccccc3)c3[n+](cc2c1OC)CCc1cc2c(cc1-3)OCO2 | inactive | – | inactive | – | – | -0.73 | Dose-dependent effect | > 20 | – | – | Dose-dependent effect | 14.4 | – | – | – | Activity (C6 [18]): inactive; Activity (C6 [19]): inactive; Activity (U-87MG ATCC [20]): inactive; viability at 20 µM (C6 [21]): 37.2%; viability at 20 µM [22]: 67.2%; Activity (U-87MG ATCC [23]): inactive |
| CCCCCCCCCCCCCCCCOc1c(OC)ccc2cc3[n+](cc12)CCc1cc2c(cc1-3)OCO2.[Br-] | – | Active | – | >60% | – | 3.41 | Dose-dependent effect | 15.2 | Active | >60% | Dose-dependent effect | 6.12 | – | >60 | >60 | Survival [24]: 38.95% |
| CCCCCCCCCCOc1c(OC)ccc2cc3[n+](cc12)CCc1cc2c(cc1-3)OCO2 | Active | – | Active | Active | – | 2.26 | Dose-dependent effect | 5.73 | – | Active | Dose-dependent effect | 2.95 | – | – | – | Activity (U-87MG ATCC [20]): Active |
| CCCCCCCCCCCCCCCCCCOc1c(OC)ccc2cc3[n+](cc12)CCc1cc2c(cc1-3)OCO2.[Br-] | inactive | – | inactive | >30% | – | 3.01 | Dose-dependent effect | 22.5 | – | >30% | Dose-dependent effect | 4.45 | – | >30 | >30 | – |
| CCc1c2c(nc3ccc(OC(=O)N4CCC(N5CCCCC5)CC4)cc13)-c1cc3c(c(=O)n1C2)COC(=O)[C@]3(O)CC [IRINOTECAN] | – | – | – | – | – | – | – | – | – | – | – | – | – | – | – | IC50 [17]: > 250 µM |
| CCCCCCCCCCc1c2[n+](cc3c(OC)c(OC)ccc13)CCc1cc3c(cc1-2)OCO3 | Active | – | Active | Active | < 20 | 2.37 | Dose-dependent effect | 3.65 | – | Active | Dose-dependent effect | 1.12 | < 20 | – | – | Activity (U-87MG ATCC [25]): Active; Activity (U-87MG ATCC [26]): Active |
| CCCCCCCCCCCCCCCCc1c2[n+](cc3c(OC)c(OC)ccc13)CCc1cc3c(cc1-2)OCO3.[I-] | – | Active | – | >30% | < 20 | 3.24 | Dose-dependent effect | 3.25 | Active | >30% | Dose-dependent effect | 1.67 | < 20 | – | – | Activity [1]: >30%; Activity [5]: >30% |
| COc1ccc2cc3[n+](cc2c1OC)CCc1cc2c(cc1-3)OCO2.[Cl-] [BERBERINE CHLORIDE] | inactive | Active | inactive | – | – | -1.68 | – | > 20 | Active | – | – | > 20 | – | – | – | Activity (C6 [27]): Active; Activity (U-87MG ATCC [28]): Active; Activity (U-87MG ATCC [29]): Active; Activity (C6 [30]): Active |
| CCCCCCCCCCCCOc1c(OC)ccc2cc3[n+](cc12)CCc1cc2c(cc1-3)OCO2.[Br-] | Active | Active | Active | >60% | – | 3.43 | Dose-dependent effect | 4.55 | Active | >60% | Dose-dependent effect | 1.24 | – | – | – | Activity [31]: >60%; Activity [32]: >60% |
